# Entries after “also recorded” stand apart in the source; their conditions may differ. Marks after values point to notes of the source that are not given here.
# Tested on: intestinal adenomas in Min mice (Apc^min/Apc^+)
# Assay: Intestinal tumorigenesis in Min mice fed treatment diets for 10 weeks (adenoma number and size)
# Assay type: in vivo
# Conditions: for Adenoma numbers in the small intestine, Distal / Adenoma numbers in the small intestine, Middle / Adenoma numbers in the small intestine, Proximal / Total Adenoma Diameter in the small intestine / Adenoma numbers in the small intestine, Total: 800 ppm anthocyanins; for Adenoma numbers in the small intestine, Distal / Adenoma numbers in the small intestine, Middle / Adenoma numbers in the small intestine, Proximal / Total Adenoma Diameter in the small intestine: 200 ppm cyanidin or 200 ppm sulindac in drinking water, or 20% cherries diet; for Adenoma numbers in the small intestine, Distal / Adenoma numbers in the small intestine, Middle / Adenoma numbers in the small intestine, Proximal / Total Adenoma Diameter in the small intestine / Adenoma numbers in the small intestine, Total / Colon Total adenoma Volume / Cecal Total adenoma Volume / Cecum adenoma Number / Colon adenoma Number / Mean Adenoma Diameter in the small intestine / Average number of solid tumors, Cecum / Average number of solid tumors, Colon / Average number of solid tumors, Total (cecum and colon): mean ± SEM; for Adenoma numbers in the small intestine, Total: 200 ppm cyanidin or 200 ppm sulindac in drinking water, or 20% freeze-dried cherries in diet; for Colon Total adenoma Volume / Cecal Total adenoma Volume / Cecum adenoma Number / Colon adenoma Number / Mean Adenoma Diameter in the small intestine / Average number of solid tumors, Cecum / Average number of solid tumors, Colon / Average number of solid tumors, Total (cecum and colon): same treatments; for Cecal Total adenoma Volume / Cecum adenoma Number / Colon adenoma Number / Mean Adenoma Diameter in the small intestine: different superscripts = significant differences (P < 0.05); for Average number of solid tumors, Cecum / Average number of solid tumors, Colon / Average number of solid tumors, Total (cecum and colon): three-dimensional raised tumors
# Text: Forty-eight Min mice were randomly assigned to five treatment groups at 4-5 weeks of age and fed treatment diets for 10 weeks. The treatments were:
# 1) Modified AIN-93G control diet, 2) The control diet +800 ppm anthocyanins in drinking water, 3) The control diet+200 ppm cyanidin in drinking water, 4) The control diet+200 ppm sulindac in drinking water, 5) Modified control diet containing 20% freeze dried pitted tart cherries. Only mean diameter, not the number of adenomas in the small intestine was reduced by sulindac, whereas diameter was increased by cherry diet (p<0.05).
# All research was conducted with approval of the Michigan State University, East Lansing, Mich., All-University Committee on animal use and care. Mice were housed in MSU Laboratory, Animal Resources maintained facilities. A colony of Min mice was maintained by crossing male Min mice (Apc^min/Apc^+) with normal adult C57BL/6J female mice. Mice were housed in a temperature and humidity-controlled room (20-22° C., 70%) with a 12-h light/dark cycle. At three weeks of age, mice were bled from the dorsal pedal vein (30 μL) for genotyping analysis to identify Apc^min/Apc^+ using polymerase chain reaction (PCR) analysis and subsequent gel electrophoresis analysis. Forty-eight Min mice identified were randomly assigned to five treatment groups (7 to 11 per treatment) at 4 or 5 weeks of age and fed treatment diets for 10 weeks. The treatments were:
# 1) Modified AIN-93G control diet and 50 ppm ascorbic acid in drinking water (n=11)
# 2) The control diet+50 ppm ascorbic acid and 800 ppm anthocyanins in drinking water (n=9)
# 3) The control diet+50 ppm ascorbic acid and 200 ppm cyanidin in drinking water (n=7)
# 4) The control diet+50 ppm ascorbic acid and 200 ppm sulindac in drinking water (n=10)
# 5) 20% freeze-dried cherries+50 ppm ascorbic acid in drinking water (n=11).
# Ingredient composition of diets is in Table 1. All diets contained 22% protein, 15% fat (soybean oil) and 5% cellulose contents. Distilled water was used for drinking water. Ascorbic acid was added to provide low pH for keeping anthocyanins and cyanidin in solution since they are stable only under pH 7. The concentration of sulindac (200 ppm) was based on the effective range found from most studies that have shown sulindac to reduce intestinal neoplasia. Cyanidin concentration (200 ppm) was matched to that of sulindac. Anthocyanins was tested at the level four times the cyanidin concentration because anthocyanins are the glycosylated cyanidin and the level (800 ppm) has equivalent amount of flavylium cation. Red tart pitted cherries (Peerson Farms, Inc., Shelby, Mich.) were frozen, freeze-dried, ground using plate grinder, and then screened to pass a 1 mm screen before they were incorporated into the diet at the expense of sucrose, cornstarch and dyetrose. One hundred grams of the experimental diet included 23 g of ground cherries to make 20% of cherries in the diet because dry matter of cherries was 75%, whereas that of AIN-93G diet was 91%.
# Body weight was measured once a week until mice were sacrificed at the end of treatment period. Upon sacrifice by carbon dioxide asphyxiation, the liver was removed and frozen immediately for confirmatory PCR analysis. The entire small intestine, cecum, and colon were removed from each mouse to determine the number and size of adenomas. The tissues were separated into the following sections: proximal one-third of small intestine, middle one-third of small intestine, distal one-third of small intestine, cecum, and colon. All intestinal sections were opened longitudinally, rinsed thoroughly with water, fixed overnight in 10% neutral-buffered formalin, and then stained with 0.2% methylene blue. Tumor number and size (diameter for flat tumors or volume in the case of three-dimensional tumors) were determined in each intestinal segment on 1 mm grid transparency by direct counting with the aid of a dissecting microscope. […]
SMILES,Intestinal site of inhibited tumorigenesis (conclusion in words),Number of cecal adenomas compared to controls (in words),Size (volume) of adenomas in the cecum (in words),"Adenoma numbers in the small intestine, Distal","Adenoma numbers in the small intestine, Middle","Adenoma numbers in the small intestine, Proximal",Total Adenoma Diameter in the small intestine,"Adenoma numbers in the small intestine, Total",Trend in number of adenoma in the proximal section of the small intestine (in words) (P=0.05),Number of colonic adenomas (in words) (p<0.05),"Mean diameter (size) of adenoma in the small intestine, effect compared to control diet (in words) (p<0.05, listed as sulindac)","Number of colonic adenomas (in words) (p<0.05, listed as sulindac)",Colon Total adenoma Volume,Cecal Total adenoma Volume,Cecum adenoma Number,Colon adenoma Number,Mean Adenoma Diameter in the small intestine,"Average number of solid tumors, Cecum","Average number of solid tumors, Colon","Average number of solid tumors, Total (cecum and colon)"
"CC1=C(CC(=O)O)c2cc(F)ccc2/C1=C\c1ccc([S+](C)[O-])cc1 (stereo not drawn) [Sulindac, sulindac]",inhibits small intestinal tumorigenesis,significantly more cecal adenomas than controls; also recorded: significantly higher number of cecal adenomas; also recorded: increased the number of adenomas in cecum and colon,increased,10.0 ± 6.5,9.1 ± 4.9,5.6 ± 2.9,23.5 ± 18.4 mm,24.7 ± 13.2,reduced,twice as many adenomas as those of mice in cherry diet,significantly reduced the size of adenomas in small intestine,greatest number of colonic adenomas; also recorded: increased the number of adenomas in cecum and colon,3.35 ± 1.88 mm^3,4.00 ± 0.81^a mm^3,4.00 ± 0.53^c,5.30 ± 0.67^b,0.93 ± 0.10^a mm,0.20 ± 0.11,0.20 ± 0.17,0.40 ± 0.21
Oc1cc(O)c2cc(O)c(-c3ccc(O)c(O)c3)[o+]c2c1 [Cyanidin],–,–,–,20.0 ± 7.8,15.7 ± 5.8,15.6 ± 3.5,67.4 ± 22.0 mm,51.3 ± 15.8,–,–,–,–,3.51 ± 2.24 mm^3,0.56 ± 0.96^b mm^3,0.57 ± 0.63^b,3.71 ± 0.80^ab,1.25 ± 0.11^b mm,0.00 ± 0.13,0.14 ± 0.21,0.14 ± 0.25

# From patent US6656914B2, “Method for treating tumors caused by APC gene mutation with anthocyanins and cyanidin” (Board of Trustees of Michigan State University, priority 2000, dated 2003)
